Reference: patent US20100286145A1, “ISOPHTHALAMIDE DERIVATIVES INHIBITING BETA-SECRETASE ACTIVITY” (CoMentis, Inc., priority 2007, published 2010)
pIC50, pKi: −log10 of the molar value. Read-outs that look alike come from different tables or passages of the source.

Assays:
[1] = system: Aβ production in Chinese hamster ovary cells that over-express human APP695 with the London and Swedish mutations; experiment: Cellular Aβ IC50 determination (Aβ40 sandwich ELISA); type: cell-based; details: Cricetulus griseus
Outline: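 Aβ40 in media quantified by sandwich ELISA, normalized to control incubations and fitted with a 4-parameter IC50 model. Compounds dosed to a final concentration near 4 μM (0.4% DMSO) on CHO cells expressing human APP695 (London and Swedish mutants) seeded at 10% confluency.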

memapsin 2 = memapsin 2 (Homo sapiens, UniProt P56817); experiment: Inhibition of memapsin 2 beta-secretase activity (fluorogenic substrate FS-2); type: biochemical; details: memapsin 2, pH 4, 37° C., fluorogenic substrate FS-2; read-out: M2Ki
Outline: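 Kinetic fluorogenic assay: hydrolysis of the MCA/DNP-labelled APP Swedish-variant peptide FS-2 monitored as fluorescence rise at 37° C, pH 4, after 20 min enzyme–compound preincubation. Relative rates fitted with a tight-binding inhibitor model.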

[2] = cellular Aβ production, read-out: IC50

Sequence of memapsin 2 (P56817 46-501): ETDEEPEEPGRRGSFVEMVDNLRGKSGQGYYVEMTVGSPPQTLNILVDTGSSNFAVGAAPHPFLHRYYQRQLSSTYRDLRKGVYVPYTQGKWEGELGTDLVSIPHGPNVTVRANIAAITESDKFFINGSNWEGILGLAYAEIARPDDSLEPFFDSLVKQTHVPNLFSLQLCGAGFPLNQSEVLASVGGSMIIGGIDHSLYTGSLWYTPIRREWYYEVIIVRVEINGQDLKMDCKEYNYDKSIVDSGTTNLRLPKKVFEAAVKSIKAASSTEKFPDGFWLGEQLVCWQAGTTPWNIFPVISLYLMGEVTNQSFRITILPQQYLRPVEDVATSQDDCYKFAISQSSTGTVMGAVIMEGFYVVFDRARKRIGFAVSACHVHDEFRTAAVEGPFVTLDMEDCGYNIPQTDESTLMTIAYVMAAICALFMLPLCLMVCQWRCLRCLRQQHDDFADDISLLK

| SMILES | pIC50 [1, 2] | pKi (memapsin 2) | pIC50 [1] |
| --- | --- | --- | --- |
| Cc1csc(CN(C)C(=O)c2cccc(C(=O)N[C@@H](Cc3ccccc3)[C@H](O)CNCc3cc(Cl)cc(Cl)c3)c2)n1 [Compound 236, N1-((2S,3R)-4-(3,5-dichlorobenzylamino)-3-hydroxy-1-phenylbutan-2-yl)-N3-methyl-N3-((4-methylthiazol-2-yl)methyl)isophthalamide] | > 6.00 | > 6.52 | – |
| CC(=O)c1cc(C(=O)N[C@@H](Cc2ccccc2)[C@H](O)CNCc2cncc(C(C)C)c2)cc(C(=O)N(C)Cc2nc(C)cs2)c1 [Compound 237, 5-acetyl-N1-((2S,3R)-3-hydroxy-4-((5-isopropylpyridin-3-yl)methylamino)-1-phenylbutan-2-yl)-N3-methyl-N3-((4-methylthiazol-2-yl)methyl)isophthalamide] | > 6.00 | > 6.52 | – |
| COc1cccc(CNC[C@@H](O)[C@H](Cc2ccccc2)NC(=O)c2cc(C(=O)N(C)Cc3nc(C)cs3)cc(-n3cccc3)c2)c1 [Compound 238, N1-((2S,3R)-3-hydroxy-4-(3-methoxybenzylamino)-1-phenylbutan-2-yl)-N3-methyl-N3-((4-methylthiazol-2-yl)methyl)-5-(1H-pyrrol-1-yl)isophthalamide] | > 6.00 | > 6.52 | – |
| Cc1csc(CN(C)C(=O)c2cc(C(=O)N[C@@H](Cc3ccccc3)[C@H](O)CNCc3cncc(C(C)C)c3)cc(-n3cccc3)c2)n1 [Compound 239, N1-((2S,3R)-3-hydroxy-4-((5-isopropylpyridin-3-yl)methylamino)-1-phenylbutan-2-yl)-N3-methyl-N3-((4-methylthiazol-2-yl)methyl)-5-(1H-pyrrol-1-yl)isophthalamide] | > 6.00 | > 6.52 | – |
| Cc1nc(CN(C)C(=O)c2cccc(C(=O)N[C@@H](Cc3ccccc3)[C@H](O)CNCc3cncc(C(C)C)c3)c2)no1 [Compound 240, N1-((2S,3R)-3-hydroxy-4-((5-isopropylpyridin-3-yl)methylamino)-1-phenylbutan-2-yl)-N3-methyl-N3-((5-methyl-1,2,4-oxadiazol-3-yl)methyl)isophthalamide] | 5.30 to 6.00 | 6.30 to 6.52 | – |
| COc1cccc(CNC[C@@H](O)[C@H](Cc2ccccc2)NC(=O)c2cc(C(=O)N(C)Cc3nc(C)cs3)cc(N3CCC(O)C3)c2)c1 (stereo partly drawn) [Compound 241, N1-((2S,3R)-3-hydroxy-4-(3-methoxybenzylamino)-1-phenylbutan-2-yl)-5-(3-hydroxypyrrolidin-1-yl)-N3-methyl-N3-((4-methylthiazol-2-yl)methyl)isophthalamide] | 5.30 to 6.00 | > 6.52 | – |
| Cc1csc(CN(C)C(=O)c2cc(C(=O)N[C@@H](Cc3ccccc3)[C@H](O)CNCc3cncc(C(C)C)c3)cc(N3CCC(O)C3)c2)n1 (stereo partly drawn) [Compound 242, N1-((2S,3R)-3-hydroxy-4-((5-isopropylpyridin-3-yl)methylamino)-1-phenylbutan-2-yl)-5-(3-hydroxypyrrolidin-1-yl)-N3-methyl-N3-((4-methylthiazol-2-yl)methyl)isophthalamide] | > 6.00 | > 6.52 | – |
| CC(=O)Oc1cc(CNC[C@@H](O)[C@H](Cc2ccccc2)NC(=O)c2cccc(C(=O)N(C)Cc3nc(C)cs3)c2)cc(C(C)C)c1 [Compound 243, 3-(((2R,3S)-2-hydroxy-3-(3-(methyl((4-methylthiazol-2-yl)methyl)carbamoyl)benzamido)-4-phenylbutylamino)methyl)-5-isopropylphenyl acetate] | > 6.00 | > 6.52 | – |
| CC(=O)c1cc(C(=O)N[C@@H](Cc2ccccc2)[C@H](O)CNCc2cccc(C(F)(F)F)c2)cc(C(=O)N(C)Cc2nc(C)cs2)c1 [Compound 244, 5-acetyl-N1-((2S,3R)-3-hydroxy-1-phenyl-4-(3-(trifluoromethyl)benzylamino)butan-2-yl)-N3-methyl-N3-((4-methylthiazol-2-yl)methyl)isophthalamide] | > 6.00 | > 6.52 | – |
| Cc1csc(CN(C)C(=O)c2cc(C(=O)N[C@@H](Cc3ccccc3)[C@H](O)CNCc3cncc(C(C)(F)F)c3)cc(C(F)F)c2)n1 [Compound 245, N1-((2S,3R)-4-((5-(1,1-difluoroethyl)pyridin-3-yl)methylamino)-3-hydroxy-1-phenylbutan-2-yl)-5-(difluoromethyl)-N3-methyl-N3-((4-methylthiazol-2-yl)methyl)isophthalamide] | > 6.00 | > 6.52 | – |
| Cc1csc(CN(C)C(=O)c2cccc(C(=O)N[C@@H](Cc3ccccc3)[C@H](O)CNCc3cc(C#N)cc(C(C)C)c3)c2)n1 [Compound 248, N1-((2S,3R)-4-(3-cyano-5-isopropylbenzylamino)-3-hydroxy-1-phenylbutan-2-yl)-N3-methyl-N3-((4-methylthiazol-2-yl)methyl)isophthalamide] | > 6.00 | > 6.52 | – |
| Cc1csc(CN(C)C(=O)c2ccc(C)c(C(=O)N[C@@H](Cc3ccccc3)[C@H](O)CNCc3cncc(C(C)C)c3)c2)n1 [Compound 249, N3-((2S,3R)-3-hydroxy-4-((5-isopropylpyridin-3-yl)methylamino)-1-phenylbutan-2-yl)-N1,4-dimethyl-N1-((4-methylthiazol-2-yl)methyl)isophthalamide] | < 5.30 | < 6.30 | – |
| Cc1csc(CN(C)C(=O)c2cc(C(=O)N[C@@H](Cc3ccccc3)[C@H](O)CNCc3cncc(C(C)(C)F)c3)cc(-n3cccc3)c2)n1 [Compound 250, N1-((2S,3R)-4-((5-(2-fluoropropan-2-yl)pyridin-3-yl)methylamino)-3-hydroxy-1-phenylbutan-2-yl)-N3-methyl-N3-((4-methylthiazol-2-yl)methyl)-5-(1H-pyrrol-1-yl)isophthalamide] | > 6.00 | > 6.52 | – |
| CNS(=O)(=O)c1cc(CNC[C@@H](O)[C@H](Cc2ccccc2)NC(=O)c2cccc(C(=O)N(C)Cc3nc(C)cs3)c2)cc(C(C)C)c1 [Compound 251, N1-((2S,3R)-3-hydroxy-4-(3-isopropyl-5-(N-methylsulfamoyl)benzylamino)-1-phenylbutan-2-yl)-N3-methyl-N3-((4-methylthiazol-2-yl)methyl)isophthalamide] | > 6.00 | > 6.52 | – |
| Cc1csc(CN(C)C(=O)c2cc(C(=O)N[C@@H](Cc3ccccc3)[C@H](O)CNCc3cncc(C(C)C)c3)cc(-c3ccco3)c2)n1 [Compound 252, 5-(furan-2-yl)-N1-((2S,3R)-3-hydroxy-4-((5-isopropylpyridin-3-yl)methylamino)-1-phenylbutan-2-yl)-N3-methyl-N3-((4-methylthiazol-2-yl)methyl)isophthalamide] | > 6.00 | > 6.52 | – |
| Cc1csc(CN(C)C(=O)c2cc(C(=O)N[C@@H](Cc3ccccc3)[C@H](O)CNCc3cncc(C(C)(F)F)c3)cc(N(C)C)c2)n1 [Compound 253, N1-((2S,3R)-4-((5-(1,1-difluoroethyl)pyridin-3-yl)methylamino)-3-hydroxy-1-phenylbutan-2-yl)-5-(dimethylamino)-N3-methyl-N3-((4-methylthiazol-2-yl)methyl)isophthalamide] | > 6.00 | > 6.52 | – |
| Cc1csc(CN(C)C(=O)c2cc(C(=O)N[C@@H](Cc3ccccc3)[C@H](O)CNCc3cccc(C(F)(F)F)c3)cc(N(C)C)c2)n1 [Compound 254, 5-(dimethylamino)-N1-((2S,3R)-3-hydroxy-1-phenyl-4-(3-(trifluoromethyl)benzylamino)butan-2-yl)-N3-methyl-N3-((4-methylthiazol-2-yl)methyl)isophthalamide] | > 6.00 | > 6.52 | – |
| COP(=O)(OC)Oc1cc(CNC[C@@H](O)[C@H](Cc2ccccc2)NC(=O)c2cccc(C(=O)N(C)Cc3nc(C)cs3)c2)cc(C(C)C)c1 [Compound 255, 3-(((2R,3S)-2-hydroxy-3-(3-(methyl((4-methylthiazol-2-yl)methyl)carbamoyl)benzamido)-4-phenylbutylamino)methyl)-5-isopropylphenyl dimethyl phosphate] | – | > 6.52 | > 6.00 |
| Cc1nnc(CN(C)C(=O)c2cccc(C(=O)N[C@@H](Cc3ccccc3)[C@H](O)CNCc3cncc(C(C)C)c3)c2)o1 [Compound 256, N1-((2S,3R)-3-hydroxy-4-((5-isopropylpyridin-3-yl)methylamino)-1-phenylbutan-2-yl)-N3-methyl-N3-((5-methyl-1,3,4-oxadiazol-2-yl)methyl)isophthalamide] | 5.30 to 6.00 | < 6.30 | – |
| Cc1csc(CN(C)C(=O)c2cc(C(=O)N[C@@H](Cc3ccccc3)[C@H](O)CNCc3cncc(C(C)C)c3)cc(-c3cccn3C)c2)n1 [Compound 257, N1-((2S,3R)-3-hydroxy-4-((5-isopropylpyridin-3-yl)methylamino)-1-phenylbutan-2-yl)-N3-methyl-5-(1-methyl-1H-pyrrol-2-yl)-N3-((4-methylthiazol-2-yl)methyl)isophthalamide] | > 6.00 | > 6.52 | – |
| Cc1csc(CN(C)C(=O)c2cc(C(=O)N[C@@H](Cc3ccccc3)[C@H](O)CNCc3cncc(C(C)C)c3)cc(-c3cnn(C)c3)c2)n1 [Compound 258, N1-((2S,3R)-3-hydroxy-4-((5-isopropylpyridin-3-yl)methylamino)-1-phenylbutan-2-yl)-N3-methyl-5-(1-methyl-1H-pyrazol-4-yl)-N3-((4-methylthiazol-2-yl)methyl)isophthalamide] | > 6.00 | > 6.52 | – |
| Cc1csc(CN(C)C(=O)c2cc(C(=O)N[C@@H](Cc3ccccc3)[C@H](O)CNCc3cncc(C(C)C)c3)cc(-c3ccc(F)nc3)c2)n1 [Compound 259, 5-(6-fluoropyridin-3-yl)-N1-((2S,3R)-3-hydroxy-4-((5-isopropylpyridin-3-yl)methylamino)-1-phenylbutan-2-yl)-N3-methyl-N3-((4-methylthiazol-2-yl)methyl)isophthalamide] | > 6.00 | > 6.52 | – |
